{"source": "patent US20170304358A1", "about": "“PRIMARY AND SECONDARY PREVENTION OF DEMENTIAS AND SUICIDE WITH TRACE DOSE LITHIUM” (priority 2014, published 2017)", "origin": "cited, not measured here", "key": {"[1]": {"tested_on": "cognition in persons with MCI", "details": "micro-doses (<0.28 mg/d of lithium carbonate)"}, "[2]": {"details": "standard doses of lithium"}}}
{"smiles": "O=C([O-])[O-].[Li+].[Li+]", "note": "[Lithium carbonate, lithium carbonate]", "values": [{"measurement": "benefit for cognition in MCI", "setting": "[1]", "result": "some benefit for cognition"}]}
{"smiles": "[Li]", "note": "[lithium]", "values": [{"measurement": "adverse side effects", "setting": "[2]", "result": "renal toxicity"}]}
